Measured values published in publication PMC7782499, “Progerinin, an optimized progerin-lamin A binding inhibitor, ameliorates premature senescence phenotypes of Hutchinson-Gilford progeria syndrome” (Communications Biology, 2021).
Values joined by “and” are separate entries in the source; they are usually repeats but may differ in a detail not shown here. Identical values can stand only once. Like-named read-outs stand apart in the source and are kept apart here.

Legend:
[1] = test system: HGPS cells; assay: Cell proliferation of HGPS cells (MTT assay, cell counting); assay type: cell-based, human; conditions: for Cell proliferation (rate): 7 days, normalized to DMSO-treated cells; for Cell counting after treatment with chemicals, Ave / Cell proliferation after treatment with SLC-D011, Ave: average; for Cell counting after treatment with chemicals / Cell proliferation after treatment with SLC-D011: single replicates
Protocol: To determine the cellular viability, cells were treated with lonafarnib or SLC-D011 for 2 weeks. For MTT assay, cells were incubated with 0.5 mg/ml of 3-(4,5-dimethythiazol-2-yl)-2,5-diphenyl tetrazolium bromide (MTT) solution for 6 hr at 37 °C. After removing MTT solution, the precipitated materials were dissolved in […] DMSO and quantified by measuring the absorbance at 540 nm.
Fig. S4. Ef fect s of J H4, J H010, and SLC-D011 in ameliorating nuclear deformation of HGPS fibroblasts.
A. JH4, JH010, and SLC-D011 increase population of HGPS cells (n = 3 independent experiment; two-
tailed Student’s t -test), **p<0.001. […]
DAPI indicated DNA. C. Treatment with SLC-D011 (1 µM) for 7 days increased
cell proliferation in three different HGPS cells but not in normal fibroblasts (n = 3 independent experiments;
two-tailed Student’s t-test), **p < 0.001, N.S: not significant. AU, arbitrary units. […]

[2] = test system: HGPS cells; assay: Nuclear deformation counting in HGPS cells; assay type: cell-based, human; parameters: key to Nuclear deformation (rate): fraction of nuclear-deformed cells, relative to DMSO-treated cells; conditions: for Nuclear deformation (rate): 7 days, normalized to DMSO-treated cells; for Nuclear deformation: AG03198
Protocol: Fig. 1 SLC-D011 ameliorates premature aging features of HGPS. A. HEK293 cells were transiently transfected with expression vector encoding wild-type lamin A (WT-LA), lamin A-C661A (LA-C661A), progerin, or progerin-C611A. LA-C661A or progerin-C611A with point mutation in CaaX motif was predicted to be lack of farnesylation, […] that of authentic WT-LA or progerin. GFP-conjugated empty expression vector was used as a negative control. Cells were visualized at 24 h after transfection. B Transient transfection of HEK293 cells with expression vector encoding progerin or […] leads to reduced expression of H3K9me3 (n = 3 independent experiments; two-tailed Student’s t test). C. JH4 derivatives (JH010 and SLC-D011(D011)) inhibit lamin A and progerin interaction. For binding inhibition assay, bead-conjugated lamin A (GST-LA) was incubated with HEK293 cells, transiently transfected with GFP-progerin (PG), and treated with indicated chemicals. Actin was used as a loading control. PPT, co-precipitated materials with recombinant proteins; Sup supernatant. 5 μM of each chemical was used for binding assay. […] H3K9me3 reduction is a well-known marker for premature aged cells. Thus, H3K9me3 expression was evaluated by immunostaining. […] E SLC-D011 obviously suppresses progerin expression. For progerin expression analysis, each chemical was used to treat HGPS cells (AG03198, Coriell Cell Repositories) for 7 days. […] F SLC-D011 reduces the expression of progerin in other HGPS cells (AG11513 and AG11498, Coriell Cell Repositories). Treatment with SLC-D011 (2 μM) for 7 days reduced the expression of progerin and p16/INK4A but induced the expression of H3K9me3. […] G JH4, JH010, and SLC-D011 promote cell proliferation. Cell viability was determined by MTT assay after incubation with chemicals for 7 days (n = 3 independent experiments; two-tailed Student’s t test). H JH4, JH010, and SLC-D011 show similar activity for ameliorating nuclear deformation. After incubation with chemicals for 7 days, cells were stained with progerin and H3K9me3 antibodies (n = 3 independent experiment; two-tailed Student’s t test), **p < 0.001. Data are reported as mean ± SD. “Con” means Dimethyl sulfoxide (DMSO)-treated control. The data are normalized to DMSO-treated cells.
For nuclear deformation cell counting, immunofluorescence staining was performed with lamin A or progerin antibodies. After staining, abnormal nuclear membrane was counted in randomly selected fields and expressed as percentages or actual numbers of total cells counted. Abnormalities of nuclear membrane were determined based on the following: (1) lamin A/C or progerin lining was extruded or engulfed, (2) having at least one bleb, and (3) irregular contour. Counting of cells with nuclear deformation was performed by three independent observers who were blinded to chemical treatment group. To analyze histone H3K9me3 intensity or expression, images were quantified using “color histogram” function of Image J software (National Institute of Health, NIH). Fluorescence intensities were subtracted by background signals.

[3] = In vivo pharmacokinetic (PK) analysis, intravenous and oral; parameters: species or system rats; conditions: for bioavailability: read-out: Bioavailability (BA)
Protocol: A. In vivo pharmacokinetic (PK) analysis of JH010 (performed in rats). […] B Effect of SLC-D011 on human ERG (hERG). […] C In vivo pharmacokinetic analysis of SLD-D011. […] HEK293 cells transiently transfected with GFP-PG vectors were treated with SLC-D011 for 24 hr (n = 3 independent experiment; two-tailed Student’s t test). […] “Con” means dimethyl sulfoxide (DMSO)-treated control.
At pre-set time-points, blood concentration of JH4 was determined by LC-MS/MS analysis[22],[23]. Other chemicals were also tested using similar protocol. In vitro ADME studies (plasma protein binding, CYP inhibition, microsomal stability, plasma stability, and hERG inhibition) were performed by New Drug Development Center (Daegu, Korea) using standard protocols[24],[25].

## CC1(C)Oc2cc3oc(=O)ccc3cc2CC1OC(=O)C=Cc1cccnc1 (stereo not drawn) [JH4]
[1]; AG03198, 2uM
  Cell proliferation (rate): 1.267 and 1.276 and 1.118 and 1.25 and 1.333 and 1.2963
[1]; AG03198, 2uM, mean
  Cell proliferation (rate): 1.257
[1]; AG03198, 5uM
  Cell proliferation (rate): 1.833 and 1.759 and 1.647 and 1.964 and 1.667 and 1.926
[1]; AG03198, 5uM, mean
  Cell proliferation (rate): 1.799
[1]; AG11513
  Cell counting after treatment with chemicals, Ave: 28
  Cell counting after treatment with chemicals: 22 and 29 and 19 and 40 and 32 and 37 and 17 and 28
[2]; AG03198, 2uM
  Nuclear deformation (rate): 0.7742 and 0.8571 and 0.5758 and 0.6176 and 0.8 and 0.6765
[2]; AG03198, 2uM, mean
  Nuclear deformation (rate): 0.7169
[2]; AG03198, 5uM
  Nuclear deformation (rate): 0.5161 and 0.5357 and 0.5455 and 0.4706 and 0.5667 and 0.5294
[2]; AG03198, 5uM, mean
  Nuclear deformation (rate): 0.5273
[3]; intravenous 5mg/kg (n=3)
  AUCINF_obs, Mean: 1.4 ng·h/mL
  AUCall, Mean: 1.3 ng·h/mL
  MRTINF_obs, Mean: 0.2 h
  T1/2, Mean: 6 min
  Vss_obs, Mean: 673.9 L/kg
[3]; intravenous 5mg/kg (n=3), 0.08 hr
  Plasma concentration, Mean: 4.7 ng/mL
[3]; intravenous 5mg/kg (n=3), 0.25 hr
  Plasma concentration, Mean: 1.5 ng/mL
[3]; intravenous 5mg/kg (n=3), 0.5 hr
  Plasma concentration, Mean: 0.6 ng/mL
[3]; oral 10 mg/kg
  Half-life after in vivo oral administration: extremely short

## CC1(C)Oc2cc3oc(=O)ccc3cc2C[C@@H]1OC/C=C/c1ccccc1 [SLC-D011]
[1]; AG03198, 2uM
  Cell proliferation (rate): 1.467 and 1.31 and 1.235 and 1.393 and 1.367 and 1.407
[1]; AG03198, 2uM, mean
  Cell proliferation (rate): 1.363
[1]; AG03198, 5uM
  Cell proliferation (rate): 2.067 and 2.103 and 1.735 and 2.25 and 2.2 and 2.259
[1]; AG03198, 5uM, mean
  Cell proliferation (rate): 2.102
[1]; AG03198, 0.1μM, Ave
  Cell counting: 13.375
[1]; AG03198, 0.1μM, individual replicate
  Cell counting: 15 and 16 and 14 and 8 and 13 and 12
[1]; AG03198, 0.2μM, Ave
  Cell counting: 12.25
[1]; AG03198, 0.2μM, individual replicate
  Cell counting: 11 and 14 and 12 and 13 and 16 and 10
[1]; AG03198, 0.5μM, Ave
  Cell counting: 13.625
[1]; AG03198, 0.5μM, individual replicate
  Cell counting: 15 and 13 and 17 and 11 and 10 and 12 and 18
[1]; AG03198, 1μM, Ave
  Cell counting: 18
[1]; AG03198, 1μM, individual replicate
  Cell counting: 17 and 21 and 26 and 16 and 13
[1]; AG03198
  Cell proliferation after treatment with SLC-D011, Ave: 2.85 AU
  Cell proliferation after treatment with SLC-D011: 2.5 AU (2×) and 2.2 AU and 2.7 AU and 3.3 AU and 3.7 AU and 3 AU and 2.9 AU
[1]; AG11498
  Cell proliferation after treatment with SLC-D011, Ave: 3.325 AU
  Cell proliferation after treatment with SLC-D011: 3.3 AU (2×) and 3.6 AU and 2.9 AU and 3.5 AU and 3.4 AU and 3.9 AU and 2.7 AU
[1]; AG11513
  Cell counting after treatment with chemicals, Ave: 29.75
  Cell proliferation after treatment with SLC-D011, Ave: 2.875 AU
  Cell counting after treatment with chemicals: 20 (2×) and 29 and 32 and 37 and 42 and 33 and 25
  Cell proliferation after treatment with SLC-D011: 2 AU (2×) and 2.9 AU and 3.2 AU and 3.3 AU (2×) and 3.8 AU and 2.5 AU
[1]; N9
  Cell proliferation after treatment with SLC-D011, Ave: 3.975 AU
  Cell proliferation after treatment with SLC-D011: 3.9 AU and 4.2 AU (2×) and 3.8 AU (2×) and 4 AU and 4.4 AU and 3.5 AU
[1]; direct cell counting assay, HGPS cells
  Concentration promoting cell proliferation and ameliorating nuclear abnormality: 100 nM
[2]; AG03198, 2uM
  Nuclear deformation (rate): 0.4839 and 0.6786 and 0.4545 and 0.4706 and 0.5
[2]; AG03198, 2uM, mean
  Nuclear deformation (rate): 0.5146
[2]; AG03198, 5uM
  Nuclear deformation (rate): 0.4194 and 0.4286 and 0.303 and 0.2353 and 0.3667 and 0.2941
[2]; AG03198, 5uM, mean
  Nuclear deformation (rate): 0.3412
[2]; 0.1μM, Ave
  Nuclear deformation: 36.4%
[2]; 0.1μM, individual replicate
  Nuclear deformation: 35% and 37% and 40% and 36% and 34%
[2]; 0.2μM, Ave
  Nuclear deformation: 33.2%
[2]; 0.2μM, individual replicate
  Nuclear deformation: 33% and 34% and 30% and 36%
[2]; 0.5μM, Ave
  Nuclear deformation: 25.8%
[2]; 0.5μM, individual replicate
  Nuclear deformation: 29% and 28% and 27% and 19% and 26%
[2]; 1μM, Ave
  Nuclear deformation: 21.4%
[2]; 1μM, individual replicate
  Nuclear deformation: 23% and 20% and 22% and 19%
[3]; rat, blood, oral, 10 mg/kg
  bioavailability: 58.1%
[3]; rat, blood, oral 5mg/kg (n=3)
  Cmax: 29.7 ng/mL
  Tmax: 2.7 h
[3]; rat, blood, oral 5mg/kg (n=3), read-out: AUCall, Mean
  AUC: 144 ng·h/mL
[3]; rat, blood, oral 5 mg/kg
  bioavailability: 65.9%

## NC(=O)N1CCC(CC(=O)N2CCC([C@H]3c4ncc(Br)cc4CCc4cc(Cl)cc(Br)c43)CC2)CC1 [lonafarnib, reference compound]
[2]; HGPS cells
  Nuclear shape: induced donut-shaped nuclei
